Laboratory results: patent US10442773B2, “Amorphous letermovir and solid pharmaceutical formulations thereof for oral administration” (AICURIS ANTI-INFECTIVE CURES GMBH, priority 2013, dated 2019)
Where “and” joins values, the source holds several entries; their conditions need not be identical. Identical values can stand only once.

Assay: BET specific surface area analysis
Type: physicochemical
Settings: isolated API
Method: BET specific surface area analysis was conducted on various batches of precipitated amorphous Letermovir. The same was done on a batch of Letermovir (named BXR3GBL) produced according to Example 11 of WO 2006/133822. The results of the analysis are shown below in Table 22: The particular BET method is characterized by the following parameter: Principle: Nitrogen adsorption at 77 K; method according to Brunauer, Emmett and Teller Method: volumetric method (method II) according to USP <846> Instrument: Tristar 3000/VacPrep 061 (Micromeritics) Sample mass: approximately 1.5-2.5 g Sample preparation: degassing for 2 h at 40° C. under vacuum (final vacuum <2.7 Pa) Pressure range p/p0: 0.05-0.15 (3 data points).

SMILES | specific surface area
COc1cccc(N2CCN(C3=Nc4c(F)cccc4[C@H](CC(=O)O)N3c3cc(C(F)(F)F)ccc3OC)CC2)c1 [roller dried Letermovir] | < 1 m^2/g
COc1cccc(N2CCN(C3=Nc4c(F)cccc4[C@H](CC(=O)O)N3c3cc(C(F)(F)F)ccc3OC)CC2)c1 [precipitated Letermovir, (S)-{8-fluoro-2-[4-(3-methoxyphenyl)piperazin-1-yl]-3-(2-methoxy-5-trifluormethylphenyl)-3,4-dihydroquinazolin-4-yl}acetic acid] | 1.2-2 m^2/g

Same assay, conditions: nitrogen adsorption at 77 K

SMILES | Specific Surface Area (SSA), m^2/g; BET value on average
COc1cccc(N2CCN(C3=Nc4c(F)cccc4[C@H](CC(=O)O)N3c3cc(C(F)(F)F)ccc3OC)CC2)c1 [Batch 40474375] | 1.46 m^2/g
COc1cccc(N2CCN(C3=Nc4c(F)cccc4[C@H](CC(=O)O)N3c3cc(C(F)(F)F)ccc3OC)CC2)c1 [Batch 40475297] | 1.25 m^2/g
COc1cccc(N2CCN(C3=Nc4c(F)cccc4[C@H](CC(=O)O)N3c3cc(C(F)(F)F)ccc3OC)CC2)c1 [Batch 40479198] | 2.09 m^2/g
COc1cccc(N2CCN(C3=Nc4c(F)cccc4[C@H](CC(=O)O)N3c3cc(C(F)(F)F)ccc3OC)CC2)c1 [Batch 40479202] | 1.69 m^2/g
COc1cccc(N2CCN(C3=Nc4c(F)cccc4[C@H](CC(=O)O)N3c3cc(C(F)(F)F)ccc3OC)CC2)c1 [Batch 40483516] | 1.28 m^2/g
COc1cccc(N2CCN(C3=Nc4c(F)cccc4[C@H](CC(=O)O)N3c3cc(C(F)(F)F)ccc3OC)CC2)c1 [Batch 40483515] | 1.03 m^2/g
COc1cccc(N2CCN(C3=Nc4c(F)cccc4[C@H](CC(=O)O)N3c3cc(C(F)(F)F)ccc3OC)CC2)c1 [Batch 40479200] | 1.30 m^2/g
COc1cccc(N2CCN(C3=Nc4c(F)cccc4[C@H](CC(=O)O)N3c3cc(C(F)(F)F)ccc3OC)CC2)c1 [Batch 40479463] | 1.45 m^2/g
COc1cccc(N2CCN(C3=Nc4c(F)cccc4[C@H](CC(=O)O)N3c3cc(C(F)(F)F)ccc3OC)CC2)c1 [Batch 40479189] | 1.26 m^2/g
COc1cccc(N2CCN(C3=Nc4c(F)cccc4[C@H](CC(=O)O)N3c3cc(C(F)(F)F)ccc3OC)CC2)c1 [Batch 40479248] | 1.45 m^2/g
COc1cccc(N2CCN(C3=Nc4c(F)cccc4[C@H](CC(=O)O)N3c3cc(C(F)(F)F)ccc3OC)CC2)c1 [Batch 40474463] | 1.23 m^2/g
COc1cccc(N2CCN(C3=Nc4c(F)cccc4[C@H](CC(=O)O)N3c3cc(C(F)(F)F)ccc3OC)CC2)c1 [Batch 40479201] | 1.97 m^2/g
COc1cccc(N2CCN(C3=Nc4c(F)cccc4[C@H](CC(=O)O)N3c3cc(C(F)(F)F)ccc3OC)CC2)c1 [Batch 40479326] | 1.76 m^2/g
COc1cccc(N2CCN(C3=Nc4c(F)cccc4[C@H](CC(=O)O)N3c3cc(C(F)(F)F)ccc3OC)CC2)c1 [Batch 40479434] | 1.48 m^2/g
COc1cccc(N2CCN(C3=Nc4c(F)cccc4[C@H](CC(=O)O)N3c3cc(C(F)(F)F)ccc3OC)CC2)c1 [Batch 40483517] | 1.87 m^2/g and 1.83 m^2/g
